Entries after “also recorded” stand apart in the source; their conditions may differ.
What was measured:
[1] = target: IGF2BP2 binding to m^6A-modified single strand RNA (SS-m^6A) (Homo sapiens, UniProt Q9Y6M1); test: RNA pull-down assay; assay type: biochemical
Text: (§1) FIGS. 4A-4B. CWI1-2 inhibits binding of IGF2BP2 to m^6A-modified RNA and suppresses expression of the oncogenic targets of IGF2BP2.

[2] = test system: IGF2BP2-high AML cell lines; test: Apoptosis in IGF2BP2-high AML cell lines; assay type: cell-based, human; conditions: 24-hour treatment
Text: (§2) FIGS. 6A-6B. Effects of CWI1-2 on apoptosis in human acute myeloid leukemia (AML) cells.

[3] = test system: IGF2BP2-high AML cell lines; test: Cell differentiation in IGF2BP2-high AML cell lines; assay type: cell-based, human; conditions: 24-hour treatment
Text: (§3) FIGS. 7A-7B. Effects of CWI1-2 on cell differentiation in acute myeloid leukemia (AML).

IGF2BP2 [4] = target: T1, IGF2BP2 (Homo sapiens, UniProt Q9Y6M1); test: Cellular Thermal Shift Assay (CETSA); assay type: binding; conditions: CETSA also run for IGF2BP1 and IGF2BP3; western blot
Procedure: FIGS. 2A-2C. […] Cellular Thermal Shift Assay (CETSA) was conducted. The principle of the assay is unbound proteins denature and precipitate at elevated temperatures, while drug-bound proteins tend to remain in solution. Cells are seeded and treated. Cell pellets are washed, harvested, and heated. Cells are lysed and centrifuged. Western blot is performed. FIG. 2A: Results of CETSA for IGF2BP2. FIG. 2B: Results of CETSA for IGF2BP1. FIG. 2C: Results of CETSA for IGF2BP3.

IGF2BP2 [5] = target: T1, IGF2BP2; test: Drug Affinity Responsive Target Stability (DARTS) assay; assay type: binding; conditions: protection from degradation by proteases
Procedure: FIG. 3. […] Drug Affinity Responsive Target Stability (DARTS) assay was performed. The principle of the assay is binding of compound to proteins protects proteins from degradation by proteases.

[6] = test system: human acute myeloid leukemia (AML) cells; test: Anti-cancer activity in vitro (viability of human AML cells); assay type: cell-based
Text: FIGS. 5A-5E. IC50 of the lead compound CWI1-2 in human acute myeloid leukemia (AML) cells. FIG. 5A: Relative viability vs. CWI1-2 concentration in healthy bone marrow #1. FIG. 5B: Relative viability vs. CWI1-2 concentration in healthy bone marrow #2. FIG. 5C: Relative viability vs. CWI1-2 concentration in AML blast cells collected from a primary AML patient. FIG. 5D: Relative survival vs. log10 concentration of CWI1-2 in IGF2BP2-high AML cell lines. FIG. 5E: Relative survival vs. log10 concentration of CWI1-2 in IGF2BP2-low AML cell lines.

[7] = test system: primary murine MLL-AF9 AML cells; test: Engraftment of AML cells in bone marrow transplant (BMT) recipient mice; assay type: in vivo; conditions: 5 mg/kg, i.v., daily for 7 days from ten days after BMT; peripheral blood 3 days after last treatment, flow cytometry
Procedure: (§4) FIGS. 8A-8B. […] FIG. 8A: Ten days after BMT with primary murine MLL-AF9 AML cells, recipient mice were given vehicle control (CT) or CWI1-2 daily for 7 days (5 mg/kg, i.v.). Peripheral blood was taken 3 days after the last treatment and assessed by flow cytometry.

[8] = Body weight of BMT recipient mice; assay type: in vivo; conditions: 5 mg/kg, i.v., daily for 7 days
Procedure: as §4

[9] = test system: IGF2BP2-low acute leukemia cell lines; test: Cell differentiation in IGF2BP2-low acute leukemia cell lines; assay type: cell-based; conditions: 24-hour treatment
Text: as §3

[10] = test system: IGF2BP2-low acute leukemia cell lines; test: Apoptosis in IGF2BP2-low acute leukemia cell lines; assay type: cell-based, human; conditions: 24-hour treatment
Text: as §2

IGF2BP2 [11] = target: T1, IGF2BP2; test: Biological assays of IGF2BP2 inhibition (purified fractions and synthesized compounds); conditions: for effectiveness, synthesized compound: compounds synthesized based on the predicted structures
Text: (§5) Virtual screening of library compounds and lead compound identification. NCI DTP library of approximately 260,000 compounds was screened. Screening included docking on the KH3 domain of IGF2BP2. Over 500 compounds were identified for experimental validation. NSC69557, termed CWI1, was identified as a top hit. Mass spectrometry (MS) identified CWI1 as a mixture including three major peaks: CWI1, CWI1-1, and CWI1-2. Their structures were predicted based on nuclear magnetic resonance (NMR) and MS data. The compound peaks for the predicted CWI1-1 and CWI1-2 were purified by HPLC. […] CWI1, CWI1-1, and CWI1-2 were synthesized based on the predicted structures. […] Thus, the structures of CWI1-1 and CWI1-2 were confirmed.

IGF2BP2 target genes = test: Expression of IGF2BP2 target genes and of IGF2BP2 after treatment; assay type: cell-based; conditions: after compound treatment
Text: as §1

KH3 domain of IGF2BP2 = target: T2, KH3 domain of IGF2BP2 (Homo sapiens, UniProt Q9Y6M1); test: Virtual screening of NCI DTP library (docking) followed by experimental validation; conditions: approximately 260,000 compounds screened, over 500 taken to experimental validation
T2 construct: Screening included docking on the KH3 domain of IGF2BP2
Text: as §5

T1 sequence (Q9Y6M1 whole entry): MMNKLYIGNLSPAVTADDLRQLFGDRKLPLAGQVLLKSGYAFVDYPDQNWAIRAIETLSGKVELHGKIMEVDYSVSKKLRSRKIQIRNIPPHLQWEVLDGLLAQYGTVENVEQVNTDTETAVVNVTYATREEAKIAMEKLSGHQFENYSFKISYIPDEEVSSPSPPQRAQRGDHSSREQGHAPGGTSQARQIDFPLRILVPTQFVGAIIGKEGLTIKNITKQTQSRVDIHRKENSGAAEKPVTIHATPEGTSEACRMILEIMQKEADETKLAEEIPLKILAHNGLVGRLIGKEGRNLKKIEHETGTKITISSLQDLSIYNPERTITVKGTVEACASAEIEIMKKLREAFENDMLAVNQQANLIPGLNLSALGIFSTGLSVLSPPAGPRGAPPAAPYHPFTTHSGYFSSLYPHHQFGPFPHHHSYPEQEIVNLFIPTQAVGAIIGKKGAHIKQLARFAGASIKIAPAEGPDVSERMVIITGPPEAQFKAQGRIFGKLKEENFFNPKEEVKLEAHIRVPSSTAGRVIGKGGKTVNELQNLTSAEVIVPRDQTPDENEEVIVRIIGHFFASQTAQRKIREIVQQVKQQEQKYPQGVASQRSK
Chain of IGF2BP2 binding to m^6A-modified single strand RNA (SS-m^6A) (Q9Y6M1 whole entry): as above
T2 sequence (Q9Y6M1 427-492 limits assumed): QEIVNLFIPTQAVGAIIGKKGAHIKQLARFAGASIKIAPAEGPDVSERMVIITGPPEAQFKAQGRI

| SMILES | binding of IGF2BP2 to m^6A-modified RNA in the presence of compound [1] | apoptosis [2] | cell differentiation [3] | binding to IGF2BP2 (CETSA) (IGF2BP2 [4]) | binding to IGF2BP2 (DARTS) (IGF2BP2 [5]) | anti-cancer activity in vitro [6] | engraftment of AML cells in BMT recipient mice [7] | effect on body weight of recipient mice [8] | cell differentiation [9] | apoptosis [10] | effectiveness, synthesized compound (IGF2BP2 [11]) | activity as inhibitor of IGF2BP2, HPLC-purified fraction (IGF2BP2 [11]; fractions purified by HPLC from the NSC69557 mixture) | IGF2BP2 expression (IGF2BP2 target genes) | expression of IGF2BP2 target genes (IGF2BP2 target genes) | hit ranking in library screening (KH3 domain of IGF2BP2) |
| --- | --- | --- | --- | --- | --- | --- | --- | --- | --- | --- | --- | --- | --- | --- | --- |
| Oc1ccc(Cl)cc1/C=N\N/C(=N/N=C/c1cc(Cl)ccc1O)N/N=C/c1cc(Cl)ccc1O [CWI1-2] | decreased binding of IGF2BP2 to m^6A-modified single strand RNA (SS-m^6A); also recorded: prevent IGF2BP2 from binding to its mRNA targets; also recorded: specifically inhibits binding of IGF2BP2 to its mRNA targets with m^6A modification | induces remarkable apoptosis; also recorded: significantly promoted | induces remarkable cell differentiation; also recorded: significantly promoted | direct and preferential binding; also recorded: specifically binds to IGF2BP2 | direct and preferential binding | potent anti-cancer activities in vitro at nanomolar concentrations; also recorded: potent anti-cancer efficacy | inhibits engraftment; also recorded: remarkably inhibit engraftment | little effect on body weight | much less likely | much less likely | much more effective | most active inhibitor of IGF2BP2 | without affecting IGF2BP2 expression | reduces expression of IGF2BP2 target genes; also recorded: suppressing expression of its oncogenic targets such as MYC oncogene | – |
| NN/C(=N\N=C\c1cc(Cl)ccc1O)N/N=C\c1cc(Cl)ccc1O [CWI1-1] | – | – | – | – | – | – | – | – | – | – | effective | – | – | – | – |
| N/C(=N\N=C\c1cc(Cl)ccc1O)N/N=C\c1cc(Cl)ccc1O [CWI1] | – | – | – | – | – | – | – | – | – | – | less effective | – | – | – | top hit |

Source: patent US12590056B2, “IGF2BP2 inhibitors and uses thereof” (CITY OF HOPE, priority 2020, dated 2026)
